Laboratory results as given in patent publication US20230263803A1, “METHODS OF PREVENTING OR TREATING COVID-19 AND RELATED VIRAL DISEASES OR DISORDERS” (KINARUS AG, priority 2020, published 2023).

Legend:
[1] = test system: SARS-CoV-2B.1.1.7 variant; type: cell-based; conditions: at the highest concentrations; Vero B4 cells, 72 hrs, qRT-PCR
[2] = test system: SARS-CoV-2 B1.351 variant; type: cell-based; conditions: at the highest concentrations; Vero B4 cells, 72 hrs, qRT-PCR

Cn1c(=O)c(Oc2ccc(F)cc2F)cc2cnc(NC(CCO)CCO)nc21 [Pamapimod, 6-(2,4-Difluorophenoxy)-2-[3-hydroxy-1-(2-hydroxyethyl)-propylamino]-8-methyl-8H-pyrido[2,3-d]pyrimidin-7-one]
inhibition of viral shedding, B.1.1.7 variant [1]: > 90% | inhibition of viral shedding, B1.351 variant [2]: > 90%
